The results in this text go back to US9260395B2, “Inhibitors of viral replication, their process of preparation and their therapeutical uses” (priority 2012, dated 2016).

The subject of the test is NL4-3 strain of HIV-1. In words: Cyto-protection (CellTiter-Glo viability) assay of MT4 cells infected with NL4-3 virus; inhibition of HIV replication. The class given is cell-based. The settings on record: Human immunodeficiency virus 1, NL43, 120 h; concentration leading to 50% of cyto-protection; MT4 cells infected with NL4-3 virus; 5 days incubation; CellTiter-Glo; read-out: EC50. As to the method:
Preparation of Virus stock of the NL4-3 strain of HIV-1 (Adachi et al, J Virol, 1986, 59(2):284-91).
The virus was prepared as described in Lopez et al (Lopez et al, Proc Natl Acad Sci USA., 2006, 103(40):14947-52, by transfecting 2×10^6 293 T cells (CRL-1573, ATCC) with following modifications: 6 μg of NL4-3 proviral DNA molecular clone were mixed with Fugene 6 transfection reagent from Roche, and used according to manufacturer's instructions. Forty eight hours later, transfected cell supernatants were harvested, filtered through 0.45-μm-pore-size filters, quantified for HIV-1 p24 antigen by using a Innotest HIV antigen mAb assay (Ingen) according to manufacturer's instructions, and used in infection experiments.
Serial dilutions of compounds to be tested were prepared in complete RPMI medium from 10 mM DMSO stock solutions, and I in 96 well Falcon 353072 Microtest[…]distributed in a volume of 20™ tissue culture plate, in order to get 0.5% DMSO final concentration in each well, after the addition of infected cells. Control wells contained also 0.5% DMSO final concentration but no compound.
MT4 cells (from the NIH AIDS Research and Reference Reagent Program) in RPMI complete medium were counted (10×10^6 cells per well in Falcon 353047 Multiwell™ 24 well) and infected for 2 hours at 37°, at a multiplicity of infection (moi) of 0.0001-0.00001. Cells were then centrifuged 3 min at 3000 rpm, and washed two times in 1 ml PBS to remove viruses that have not entered in cells. Infected cells were resuspended in complete RPMI at 1.25×10^6 cells/ml and 80 μl of infected cells were distributed in each well containing compound to be tested or control wells. The plates were then incubated at 37° for 5 days.
Assay used to measure the inhibition of HIV replication by the compounds (according to Gregg S. Jones et al., Antimicrobial Agents and Chemotherapy, 2009, 53 (3): 1194-1203).
After 5 days of incubation, microplates were equilibrated to room temperature for 30 mn and then 50 μl of CellTiter-Glo reagent (Promega Biosciences, Inc., Madison Wis., USA) were added to each well. Cell lysis was carried out at room temperature during 10 min, 150μl of lysates were transferred in Packard Optiplate 96 well, and luminescence was read on a Fluoroskan (Thermo Scientific).
The EC50, or effective concentration 50, is the concentration of compound leading to 50% of cyto-protection in a Cell-Titer-Glo® viability assay based on MT4 cells infected with NL4-3 virus (table 1).

`CC1CCC=C1c1nn(C)c(C(OC(C)(C)C)C(=O)O)c1-c1ccc2c(c1)CCCO2` (stereo not drawn) [Example 26, 2-(tert-butoxy)-2-[4-(3,4-dihydro-2H-1-benzopyran-6-yl)-1-methyl-3-(5-methylcyclopent-1-en-1-yl)-1H-pyrazol-5-yl]acetic acid]: the EC50 amounted to 0.63 µM.

`Cn1nc(/C=C/C2CC2)c(-c2ccc3c(c2)CCCO3)c1C(OC(C)(C)C)C(=O)O` (stereo not drawn) [Example 27, 2-(tert-butoxy)-2-{3-[(E)-2-cyclopropylethenyl]-4-(3,4-dihydro-2H-1-benzopyran-6-yl)-1-methyl-1H-pyrazol-5-yl}acetic acid]: the EC50 worked out at 5.3 µM.

Regarding `C/C=C/c1nn(C)c(C(OC(C)(C)C)C(=O)O)c1-c1ccc2c(c1)CCCO2` (stereo not drawn) [Example 29, 2-(tert-butoxy)-2-[4-(3,4-dihydro-2H-1-benzopyran-6-yl)-1-methyl-3-[(1E)-prop-1-en-1-yl]-1H-pyrazol-5-yl]acetic acid], the EC50 was 1.4 µM.

As for `CCCc1nn(C)c(C(OC(C)(C)C)C(=O)O)c1-c1ccc2c(c1)CCCO2` (stereo not drawn) [Example 30, 2-(tert-butoxy)-2-[4-(3,4-dihydro-2H-1-benzopyran-6-yl)-1-methyl-3-propyl-1H-pyrazol-5-yl]acetic acid], the EC50 was found to be 32 µM.

Regarding `CC1CC=C(c2nn(C)c(C(OC(C)(C)C)C(=O)O)c2-c2ccc3c(c2)CCCO3)CC1` (stereo not drawn) [Example 31, 2-(tert-butoxy)-2-[4-(3,4-dihydro-2H-1-benzopyran-6-yl)-1-methyl-3-(4-methylcyclohex-1-en-1-yl)-1H-pyrazol-5-yl]acetic acid], the EC50 was 3.8 µM.

As for `Cn1nc(C2=CCCC2(C)C)c(-c2ccc3c(c2)CCCO3)c1C(OC(C)(C)C)C(=O)O` (stereo not drawn) [Example 32, 2-(tert-butoxy)-2-[4-(3,4-dihydro-2H-1-benzopyran-6-yl)-3-(5,5-dimethylcyclopent-1-en-1-yl)-1-methyl-1H-pyrazol-5-yl]acetic acid], the EC50 is 3.2 µM.

As to `CC(C)(C)OC(C(=O)O)c1c(-c2ccc3c(c2)CCCO3)c(-c2cccs2)nn1CC(F)(F)F` (stereo not drawn) [Example 34, 2-(tert-butoxy)-2-[4-(3,4-dihydro-2H-1-benzopyran-6-yl)-3-(thiophen-2-yl)-1-(2,2,2-trifluoroethyl)-1H-pyrazol-5-yl]acetic acid], the EC50 is 3.5 µM.

As for `Cn1nc(-c2ccc(Cl)s2)c(-c2ccc3c(c2)CCCO3)c1C(OC(C)(C)C)C(=O)O` (stereo not drawn) [Example 36, 2-(tert-butoxy)-2-[3-(5-chlorothiophen-2-yl)-4-(3,4-dihydro-2H-1-benzopyran-6-yl)-1-methyl-1H-pyrazol-5-yl]acetic acid], the EC50 worked out at 2.7 µM.

Regarding `Cn1nc(-c2cc3c(s2)CCC3)c(-c2ccc3c(c2)CCCO3)c1C(OC(C)(C)C)C(=O)O` (stereo not drawn) [Example 37, 2-(tert-butoxy)-2-(3-{4H,5H,6H-cyclopenta[b]thiophen-2-yl}-4-(3,4-dihydro-2H-1-benzopyran-6-yl)-1-methyl-1H-pyrazol-5-yl)acetic acid], the EC50 was found to be 3.3 µM.

`Cn1nc(-c2csc3ccccc23)c(-c2ccc3c(c2)CCCO3)c1C(OC(C)(C)C)C(=O)O` (stereo not drawn) [Example 38, 2-[3-benzo[b]thiophen-3-yl-4-(3,4-dihydro-2H-1-benzopyran-6-yl)-1-methyl-1H-pyrazol-5-yl]-2-(tert-butoxy)acetic acid]: the EC50 was 2.2 µM.

With `Cn1nc(-c2ccncc2)c(C2=CCC(C)(C)CC2)c1C(OC(C)(C)C)C(=O)O` (stereo not drawn) [Example 39, 2-(tert-butoxy)-2-[4-(4,4-dimethylcyclohex-1-en-1-yl)-1-methyl-3-(pyridin-4-yl)-1H-pyrazol-5-yl]acetic acid], the EC50 was 5.7 µM.

For `Cn1nc(-c2ccncc2)c(-c2ccc3c(c2)CCCO3)c1C(OC(C)(C)C)C(=O)O` (stereo not drawn) [Example 40, 2-(tert-butoxy)-2-[4-(3,4-dihydro-2H-1-benzopyran-6-yl)-1-methyl-3-(pyridin-4-yl)-1H-pyrazol-5-yl]acetic acid], the EC50 is 6 µM.

Turning to `CC(C)C1CC=C(c2c(-c3ccccc3)nn(C)c2C(OC(C)(C)C)C(=O)O)CC1` (stereo not drawn) [Example 41, 2-(tert-butoxy)-2-{1-methyl-3-phenyl-4-[4-(propan-2-yl)cyclohex-1-en-1-yl]-1H-pyrazol-5-yl}acetic acid], the EC50 was determined as 6 µM.

Regarding `Cn1nc(-c2cccs2)c(-c2cc(F)c3c(c2)CCCO3)c1C(OC(C)(C)C)C(=O)O` (stereo not drawn) [Example 42, 2-(tert-butoxy)-2-[4-(8-fluoro-3,4-dihydro-2H-1-benzopyran-6-yl)-1-methyl-3-(thiophen-2-yl)-1H-pyrazol-5-yl]acetic acid], the EC50 was 1.8 µM.

For the compound `Cn1nc(C2=CC(O)CCC2)c(-c2ccc3c(c2)CCCO3)c1C(OC(C)(C)C)C(=O)O` (stereo not drawn) [Example 43, 2-(tert-butoxy)-2-[4-(3,4-dihydro-2H-1-benzopyran-6-yl)-3-(3-hydroxycyclohex-1-en-1-yl)-1-methyl-1H-pyrazol-5-yl]acetic acid], the EC50 came out at 9.2 µM.
